In brackets after ≈: the same amount, converted by molar mass. Read-outs that look alike come from different tables or passages of the source.

The MIC is the lowest concentration found to suppress growth.

For experiment [1], the system named is Micropsporum gypseum. Nature of the experiment: In vitro susceptibility testing (MIC) by macro broth dilution method (CLSI M-38). Format: cell-based, Microsporum gypseum. Conditions: for MIC: Nannizzia gypsea. How it is done:
(§1) In vitro susceptibility testing (Minimum Inhibitory Concentration) by macro broth dilution method—(CLSI method-M-38) was carried out as described in literature.
(§2) Reference method for broth dilution antifungal susceptibility testing of yeasts-Approved standard. NCCLS document M27-A. National Committee for Clinical Laboratory Standards, Wayne, Pa.;
(§3) Reference method for broth dilution antifungal susceptibility testing of filamentous fungi-Approved standard. NCCLS document M38-A. National Committee for Clinical Laboratory Standards, Wayne, Pa.
(§4) Candida albicans, Trichophyton mentagrophytes and Micropsporum gypseum were used as test organisms.
(§5) RPMI 1640 (Sigma) with L-glutamine but without sodium bicarbonate and buffered at pH 7.0 with 3-(N-morpholino) propanesulfonic acid monosodium salt (MOPS), was the medium used for broth macro dilution susceptibility testing.
(§6) The extract of example 1, compound 1 and ketoconazole as standard.
(§7) The samples were prepared in methanol at 100 times the final concentration, followed by further dilutions (1:10) in RPMI 1640 medium to yield ten times the final strength required for the test. Purified component was also diluted in the same manner in methanol alone. Aliquots (0.1 ml) of each extract were dispensed into tubes. The final concentrations of extract ranged from 100-10 μg/ml.
(§8) The cultures were grown on PDA agar slants at 28° C. for 7 days. The growth was covered with sterile saline and scraped to get a growth suspension. The resulting mixture of conidia or sporangiospores and hypal fragments was transferred to a sterile test tube. The heavy particles were allowed to settle and upper homogenous suspension was transferred to another tube. These suspensions were adjusted to an optical density that ranged from 0.09 to 0.11 (80 to 82% transmittance). These stock suspensions were further diluted 1:100 with medium to obtain test inoculum (0.4×10^4 to 5×10^4 cfu/ml).
(§9) Finally the tubes were inoculated with 0.1 ml of sample dilutions and 0.9 ml of the above-prepared inoculum. […] Growth control tube received only diluent without sample. […]

Experiment [2] has as its system Candida albicans. Described as above. It counts as cell-based. How it is done:
as §1, §2, §3, §4, §5, §6
The samples were prepared in methanol at 100 times the final concentration, followed by further dilutions (1:10) in RPMI 1640 medium to yield ten times the final strength required for the test. Purified component was also diluted in the same manner in methanol alone. Aliquots (0.1 ml) of each extract were dispensed into tubes. The final concentrations of extract ranged from 100-10 μg/ml. […]

Experiment [3] deals with Trichophyton mentagrophytes. The experiment can be described thus: Agar well diffusion method, zone of inhibition. The settings on record: preparative HPLC fractions; concentration not given. It counts as cell-based. The procedure:
The given extracts were tested against a panel of microorganisms, including Candida albicans 10231, Microsporum gypseum and Trichophyton mentagrophytes.
The strains were cultured overnight at 30° C. in Sabouraud dextrose agar. Colonies from subcultures were suspended in saline and vortexed to give a transmittance of 75-80% at 530 nm (T530 nm≈10^8 cfu/ml). Predecided volume of inoculum was mixed with molten agar at 40° C. and poured into sterile petri plates. Plates were allowed to set and solidify. Then wells (6 mm in diameter) were cut from the agar and 0.05 ml of extract solution was delivered into them. After incubation for 48 hours, at 28° C., all plates were examined for any zones of growth inhibition, and the diameters of these zones were measured in millimeters.
The stock solutions of 10 mg/ml of extracts of example 1 was prepared by suspending extract in methanol and sonicating for 10 seconds. Further dilutions were made to get a concentration range of 5, 2 and 1 mg/ml.
Preparative TLC samples were analyzed for the activity by Agar well diffusion method as described in example 2.
All preparative HPLC fractions were analyzed for activity by Agar well diffusion method as described in example 2.
Background: A growth-free zone around the sample is the usual read-out of agar diffusion tests.

For experiment [4], the system named is Trichophyton mentagrophytes. Nature of the experiment: In vitro susceptibility testing (MIC) by macro broth dilution method (CLSI M-38). Format: cell-based. Conditions: for MIC: Trichophyton mentagrophytes. How it is done: as §1, §2, §3, §4, §5, §6, §7, §8, §9
In general terms: Dilution methods test growth across graded concentrations, often in twofold steps.

`COc1cc2[nH]c3ccccc3c2cc1C` [Compound 1, 2-methoxy-3-methyl-9H-carbazole]: the minimum inhibitory concentration (MIC) in experiment [1] (48 h, pH 7, read-out: MIC values, Microsporum gypseum) is 4 µg/mL (≈ 18.9 µM); in experiment [2] (24 h, pH 7, read-out: MIC values, Candida ablicans) it was 30 µg/mL (≈ 142 µM); in experiment [4] (48 h, pH 7, read-out: MIC values, Trichophyton mentagrophytes), 6 µg/mL (≈ 28.4 µM). The “MIC against dermatophytes versus ketoconazole (conclusion of Table 3), Microsporum gypseum” value in experiment [1] (macro broth dilution) is listed as “Conclusion: MIC of compound 1 against dermatophytes is comparable with ketoconazole”. Moreover, in experiment [3], the “zone of inhibition (tested against Trichophyton mentagrophytes culture)” value is listed as above 25 mm. For the same compound, in experiment [4] (macro broth dilution), the “MIC against dermatophytes versus ketoconazole (conclusion of Table 3), Trichophyton mentagrophytes” value is “Conclusion: MIC of compound 1 against dermatophytes is comparable with ketoconazole”.

Regarding `CC(=O)N1CCN(c2ccc(OCC3COC(Cn4ccnc4)(c4ccc(Cl)cc4Cl)O3)cc2)CC1` (stereo not drawn) [Ketoconazole, ketoconazole, reference compound], the MIC is 4 µg/mL (≈ 7.53 µM) in experiment [1] (macro broth dilution, RPMI 1640 pH 7.0, 28° C. for 48 hours, 100% growth inhibition, read-out: MIC values, Microsporum gypseum); 5 µg/mL (≈ 9.41 µM) in experiment [2] (macro broth dilution, RPMI 1640 pH 7.0, 37° C. for 24 hours, 100% growth inhibition, read-out: MIC values, Candida ablicans); 4 µg/mL (≈ 7.53 µM) in experiment [4] (macro broth dilution, RPMI 1640 pH 7.0, 28° C. for 48 hours, 100% growth inhibition, read-out: MIC values, Trichophyton mentagrophytes).

Source of the values: US20090104297A1, “HERBAL COMPOSITION FOR TREATMENT OF INFECTIONS CAUSED BY DERMATOPHYTES” (Piramal Life Sciences Limited, priority 2006, published 2009).
